In patent US12331041B2, “GLP-1 receptor agonists and uses thereof” (Pfizer Inc., priority 2018, dated 2025):
Where a name gives a salt, the structure may show the parent alone.

Experiments:
human GLP-1R [1] = target: T1, human GLP-1R (Homo sapiens, UniProt P43220, L260F); test: CHO GLP-1R Clone C6 - Assay 2 (HTRF cAMP agonist assay); type: cell-based; settings: for EC50: CHO clone C6, low GLP-1R density, cAMP, geometric mean; for Emax: CHO clone C6, relative to saturating full agonist GLP-1 (1 μM), arithmetic mean
T1 construct: expressed in transfected cells; host or cells: CHO Flp-In T-REx, clonal line C6 (pcDNA5-FRT-TO)
T1 sequence (P43220 24-463 L260F): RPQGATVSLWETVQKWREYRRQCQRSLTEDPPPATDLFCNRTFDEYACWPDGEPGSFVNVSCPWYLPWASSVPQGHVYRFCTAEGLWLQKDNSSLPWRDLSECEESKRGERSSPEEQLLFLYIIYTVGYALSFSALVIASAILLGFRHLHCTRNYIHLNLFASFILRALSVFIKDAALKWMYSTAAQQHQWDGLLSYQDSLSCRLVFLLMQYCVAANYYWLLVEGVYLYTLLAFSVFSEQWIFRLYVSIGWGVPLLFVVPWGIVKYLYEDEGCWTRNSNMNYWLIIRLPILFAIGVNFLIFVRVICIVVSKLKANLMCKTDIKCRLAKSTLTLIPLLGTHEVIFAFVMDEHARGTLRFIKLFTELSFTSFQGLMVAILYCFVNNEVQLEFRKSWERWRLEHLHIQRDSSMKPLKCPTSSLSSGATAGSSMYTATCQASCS
Procedure: (§1) GLP-1R-mediated agonist activity was determined with a cell-based functional assay utilizing an HTRF (Homogeneous Time-Resolved Fluorescence) cAMP detection kit (cAMP HI Range Assay Kit; Cis Bio cat #62AM6PEJ) that measures cAMP levels in the cell. The method is a competitive immunoassay between native cAMP produced by the cells and exogenous cAMP labeled with the dye d2. The tracer binding is visualized by a mAb anti-cAMP labeled with Cryptate. The specific signal (i.e. energy transfer) is inversely proportional to the concentration of cAMP in either a standard or an experimental sample.
The human GLP-1R coding sequence (NCBI Reference Sequence NP_002053.3, including naturally-occurring variant Leu260Phe) was subcloned into pcDNA5-FRT-TO and a clonal CHO cell line stably expressing a low receptor density was isolated using the Flp-In™ T-Rex™ System, as described by the manufacturer (ThermoFisher).
(§2) A 1 mL sample of the cell suspension in growth media was counted on a Becton Dickinson ViCell to determine cell viability and cell count per mL. The remaining cell suspension was then adjusted with growth media to deliver 1600 viable cells per well using a Matrix Combi Multidrop reagent dispenser, and the cells were dispensed into a white 384 well tissue culture treated assay plate (Corning 3570). The assay plate was then incubated for 48 h at 37° C. in a humidified environment (95% O2, 5% CO2)
(§3) Varying concentrations of each compound to be tested (in DMSO) were diluted in assay buffer [HBSS with Calcium/Magnesium (Lonza/BioWhittaker cat #10-527F)/0.1% BSA (Sigma Aldrich cat #A7409-1L)/20 mM HEPES (Lonza/BioWhittaker cat #17-737E)] containing 100 μM 3-isobutyl-1-methylxanthin (IBMX; Sigma cat #15879). The final DMSO concentration in the compound/assay buffer mixture is 1%.
After 48 h, the growth media was removed from the assay plate wells, and the cells were treated with 20 μL of the serially diluted compound in assay buffer for 30 min at 37° C. in a humidified environment (95% O2, 5% CO2). Following the 30 min incubation, 10 μL of labeled d2 cAMP and 10 μL of anti-cAMP antibody (both diluted 1:20 in cell lysis buffer; as described in the manufacturer's assay protocol) were added to each well of the assay plate. The plates were then incubated at room temperature and after 60 minutes, changes in the HTRF signal were read with an Envision 2104 multi-label plate reader using excitation of 330 nm and emissions of 615 and 665 nm. Raw data were converted to nM cAMP by interpolation from a cAMP standard curve (as described in the manufacturer's assay protocol) and the percent effect was determined relative to a saturating concentration of the full agonist GLP-1 (1 μM) included on each plate. EC50 determinations were made from agonist dose response curves analyzed with a curve fitting program using a 4-parameter logistic dose response equation.

human GLP-1R [2] = target: T2, human GLP-1R (Homo sapiens, UniProt P43220, G168S); test: CHO GLP-1R Clone H6 - Assay 1 (HTRF cAMP agonist assay); type: cell-based; settings: for EC50: CHO Clone H6, high GLP-1R density, cAMP, geometric mean; for Emax: CHO Clone H6, relative to saturating full agonist GLP-1 7-36 (1 μM), arithmetic mean
T2 construct: expressed in transfected cells
T2 sequence (P43220 24-463 G168S): as the sequence (P43220 24-463 L260F) above, with G145S, F237L counted along it
Procedure: as §1, with “CisBio” for “Cis Bio”, “d2,” for “d2.”, “either” for “either a”, “or” for “or an”
The human GLP-1R coding sequence (NCBI Reference Sequence NP_002053.3, including naturally-occurring variant Gly168Ser) was subcloned into pcDNA3 (Invitrogen) and a cell line stably expressing the receptor was isolated (designated Clone H6).
as §2, with “deliver 2000” for “deliver 1600”, “48 hours” for “48 h”, “environment in” for “environment (95% O2,”, “5% carbon dioxide.” for “5% CO2)”
as §3, with “(HBSS” for “[HBSS”, “#17-737E)” for “#17-737E)]”, “concentration” for “concentration in the compound/assay buffer mixture”
After 48 hours, the growth media was removed from the assay plate wells, and the cells were treated with 20 μL of the serially diluted compound in assay buffer for 30 minutes at 37° C. in a humidified environment in 5% carbon dioxide. Following the 30 minute incubation, 10 μL of labeled d2 cAMP and 10 μL of anti-cAMP antibody (both diluted 1:20 in cell lysis buffer; as described in the manufacturer's assay protocol) were added to each well of the assay plate. The plates were then incubated at room temperature and after 60 minutes, changes in the HTRF signal were read with an Envision 2104 multi-label plate reader using excitation of 330 nm and emissions of 615 and 665 nm. Raw data were converted to nM cAMP by interpolation from a cAMP standard curve (as described in the manufacturer's assay protocol) and the percent effect was determined relative to a saturating concentration of the full agonist GLP-17-36 (1 μM) included on each plate. EC50 determinations were made from agonist dose-response curves analyzed with a curve fitting program using a 4-parameter logistic dose response equation.

SMILES | EC50 (human GLP-1R [1]) | Emax (human GLP-1R [1]) | EC50 (human GLP-1R [2]) | Emax (human GLP-1R [2])
O=C(O)c1ccc2nc(CN3CCC(c4cccnc4OCc4ccc(Cl)cc4F)CC3)n(Cc3ncco3)c2c1 [Example 2, 2-[(4-{2-[(4-chloro-2-fluorobenzyl)oxy]pyridin-3-yl}piperidin-1-yl)methyl]-1-(1,3-oxazol-2-ylmethyl)-1H-benzimidazole-6-carboxylic acid, trifluoroacetate salt] | 38 nM | 81% | 3.2 nM | 79%
O=C(O)c1ccc2nc(CN3CCC(c4cccnc4OCc4ccc(Cl)cc4F)CC3)n(Cc3cnco3)c2c1 [Example 6, 2-[(4-{2-[(4-chloro-2-fluorobenzyl)oxy]pyridin-3-yl}piperidin-1-yl)methyl]-1-(1,3-oxazol-5-ylmethyl)-1H-benzimidazole-6-carboxylic acid, trifluoroacetate salt] | 84 nM | 83% | 4.5 nM | 68%
O=C(O)c1ccc2nc(CN3CCC(c4cccnc4OCc4ccc(Cl)cc4F)CC3)n(Cc3ncco3)c2n1 [Example 7, 2-[(4-{2-[(4-chloro-2-fluorobenzyl)oxy]pyridin-3-yl}piperidin-1-yl)methyl]-3-(1,3-oxazol-2-ylmethyl)-3H-imidazo[4,5-b]pyridine-5-carboxylic acid, trifluoroacetate salt] | 190 nM | 81% | 8.9 nM | 81%
O=C(O)c1ccc2nc(CN3CCC(c4cccnc4OCc4ccc(Cl)cc4F)CC3)n(C[C@H]3CCOC3)c2c1 [Example 8, 2-[(4-{2-[(4-chloro-2-fluorobenzyl)oxy]pyridin-3-yl}piperidin-1-yl)methyl]-1-[(3R)-tetrahydrofuran-3-ylmethyl]-1H-benzimidazole-6-carboxylic acid, trifluoroacetate salt] | 230 nM | 76% | 6 nM | 72%
COCCn1c(CN2CCC(c3cccnc3OCc3ccc(C#N)cc3F)CC2)nc2ccc(C(=O)O)cc21 [Example 9, 2-[(4-{2-[(4-cyano-2-fluorobenzyl)oxy]pyridin-3-yl}piperidin-1-yl)methyl]-1-(2-methoxyethyl)-1H-benzimidazole-6-carboxylic acid, trifluoroacetate salt] | 700 nM | 81% | 28 nM | 77%
Cn1cncc1Cn1c(CN2CCC(c3cccnc3OCc3ccc(Cl)cc3F)CC2)nc2ccc(C(=O)O)cc21 [Example 11, 2-[(4-{2-[(4-chloro-2-fluorobenzyl)oxy]pyridin-3-yl}piperidin-1-yl)methyl]-1-[(1-methyl-1H-imidazol-5-yl)methyl]-1H-benzimidazole-6-carboxylic acid, trifluoroacetate salt] | 49 nM | 100% | 1.9 nM | 83%
O=C(O)c1ccc2nc(CN3CCC(c4cccnc4OCc4ccc(F)cc4F)CC3)n(C[C@@H]3CCO3)c2c1 [Example 12, ammonium 2-[(4-{2-[(2,4-difluorobenzyl)oxy]pyridin-3-yl}piperidin-1-yl)methyl]-1-[(2S)-oxetan-2-ylmethyl]-1H-benzimidazole-6-carboxylate] | 110 nM | 93% | 4.7 nM | 78%
CCn1cncc1Cn1c(CN2CCC(c3cccnc3OCc3ccc(C#N)cc3F)CC2)nc2ccc(C(=O)O)cc21 [Example 16, 2-[(4-{2-[(4-cyano-2-fluorobenzyl)oxy]pyridin-3-yl}piperidin-1-yl)methyl]-1-[(1-ethyl-1H-imidazol-5-yl)methyl]-1H-benzimidazole-6-carboxylic acid, trifluoroacetate salt] | 18 nM | 130% | 0.99 nM | 87%

Next, values leading:

EC50 (human GLP-1R [1]) | Emax (human GLP-1R [1]) | EC50 (human GLP-1R [2]) | Emax (human GLP-1R [2]) | SMILES
9 nM | 88% | 0.58 nM | 79% | CCn1cncc1Cn1c(CN2CCC(c3cccnc3OCc3ccc(Cl)cc3F)CC2)nc2ccc(C(=O)O)cc21 [Example 3, 2-[(4-{2-[(4-chloro-2-fluorobenzyl)oxy]pyridin-3-yl}piperidin-1-yl)methyl]-1-[(1-ethyl-1H-imidazol-5-yl)methyl]-1H-benzimidazole-6-carboxylic acid, trifluoroacetate salt]
40 nM | 98% | 3 nM | 77% | N#Cc1ccc(COc2ncccc2C2CCN(Cc3nc4ccc(C(=O)O)cc4n3Cc3ncco3)CC2)c(F)c1 [Example 4, 2-[(4-{2-[(4-cyano-2-fluorobenzyl)oxy]pyridin-3-yl}piperidin-1-yl)methyl]-1-(1,3-oxazol-2-ylmethyl)-1H-benzimidazole-6-carboxylic acid, trifluoroacetate salt]
270 nM | 91% | 6 nM | 80% | N#Cc1ccc(COc2ncccc2C2CCN(Cc3nc4ccc(C(=O)O)cc4n3C[C@@H]3CCCO3)CC2)c(F)c1 [Example 13, 2-[(4-{2-[(4-cyano-2-fluorobenzyl)oxy]pyridin-3-yl}piperidin-1-yl)methyl]-1-[(2S)-tetrahydrofuran-2-ylmethyl]-1H-benzimidazole-6-carboxylic acid, trifluoroacetate salt]
540 nM | 120% | 14 nM | 77% | O=C(O)c1ccc2nc(CN3CCC(c4cccnc4OCc4ccc(Cl)cc4F)CC3)n(CCN3CCOC3=O)c2c1 [Example 14, 2-[(4-{2-[(4-chloro-2-fluorobenzyl)oxy]pyridin-3-yl}piperidin-1-yl)methyl]-1-[2-(2-oxo-1,3-oxazolidin-3-yl)ethyl]-1H-benzimidazole-6-carboxylic acid, trifluoroacetate salt]
21 nM | 91% | 0.96 nM | 81% | CCn1cncc1Cn1c(CN2CCC(c3cccnc3OCc3ccc(Cl)cc3F)CC2)nc2ccc(C(=O)O)nc21 [Example 15, 2-[(4-{2-[(4-chloro-2-fluorobenzyl)oxy]pyridin-3-yl}piperidin-1-yl)methyl]-3-[(1-ethyl-1H-imidazol-5-yl)methyl]-3H-imidazo[4,5-b]pyridine-5-carboxylic acid, trifluoroacetate salt]
